The target of assay [1] is T1, COX-1 (Homo sapiens, UniProt P23219).
T1 construct: from tissue; host or cells: fresh heparinized human whole blood from healthy volunteers
Kind of assay: COX-1 activity in human whole blood (TXB2, calcium ionophore A23187). Format: cell-based. To be noted: 24 h at 37° C., A23187 25 μM, TXB2 by ELISA. On the procedure:
(§1) COX-1 and COX-2 Activities in Human Whole Blood
Fresh blood from healthy volunteers who had not taken any non-steroidal anti-inflammatory drugs for at least 7 days prior to blood extraction was collected in heparinized tubes (20 units of heparin per ml). For the COX-1 activity determination, 500 μl aliquots of blood were incubated with either 5 μl vehicle (dimethylsulphoxide) or 5 μl of a test compound solution for 24 h at 37° C. Calcium ionophore A23187 (25 μM) was added 20 min before the incubation was ended. Plasma was separated by centrifugation (10 min at 13000 rpm) and kept at −30° C. until TXB2 levels were measured using an enzyme immunoassay kit (ELISA).
The effect of the compounds was evaluated by incubating each compound at five to six different concentrations with triplicate determinations. IC50 values were obtained by non-linear regression using InPlot, GraphPad software on an IBM computer.

For assay [2], the target named is T2, COX-2 (Homo sapiens, UniProt P35354).
T2 construct: blood were incubated in the presence of LPS (10 μg/ml) for 24 h at 37° C. in order to induce the COX-2 expression; from tissue; host or cells: fresh heparinized human whole blood from healthy volunteers, LPS-stimulated
T2 sequence (P35354 18-604): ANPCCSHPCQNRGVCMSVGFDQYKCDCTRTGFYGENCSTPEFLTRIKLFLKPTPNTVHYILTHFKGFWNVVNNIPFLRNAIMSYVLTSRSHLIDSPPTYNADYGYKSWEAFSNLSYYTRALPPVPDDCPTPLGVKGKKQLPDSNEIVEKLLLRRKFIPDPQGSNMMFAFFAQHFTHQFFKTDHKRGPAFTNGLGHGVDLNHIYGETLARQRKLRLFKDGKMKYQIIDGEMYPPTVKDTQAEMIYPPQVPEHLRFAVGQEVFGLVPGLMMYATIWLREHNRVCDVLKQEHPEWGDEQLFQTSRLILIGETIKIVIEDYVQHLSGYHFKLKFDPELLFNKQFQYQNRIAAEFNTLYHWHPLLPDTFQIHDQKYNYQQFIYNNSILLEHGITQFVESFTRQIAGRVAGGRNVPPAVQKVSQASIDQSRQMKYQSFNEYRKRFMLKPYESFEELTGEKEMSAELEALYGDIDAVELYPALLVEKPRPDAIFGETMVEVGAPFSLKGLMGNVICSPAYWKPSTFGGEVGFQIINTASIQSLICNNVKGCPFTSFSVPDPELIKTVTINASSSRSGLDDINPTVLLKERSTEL
Kind of assay: COX-2 activity in human whole blood (PGE2, LPS-induced). It is filed as cell-based. To be noted: for IC50: human whole blood, LPS 10 μg/ml, 24 h at 37° C., PGE2 by ELISA; for Ratio COX-1/COX-2: ratio of human whole blood IC50 values. The procedure:
as §1
For the COX-2 activity determination, 500 μl aliquots of blood were incubated in the presence of LPS (10 μg/ml) for 24 h at 37° C. in order to induce the COX-2 expression (Patriagnani et al., J. Pharm. Exper. Ther. 271; 1705-1712 (1994)). Plasma was separated by centrifugation (10 min at 13000 rpm) and kept at −30° C. until PGE2 levels were measured using an enzyme immunoassay kit (ELISA). The effects of inhibitors were studied by incubating each compound (5 μl aliquots) at five to six different concentrations with triplicate determinations in the presence of LPS for 24 hours. IC50 values were obtained by non-linear regression using InPlot, GraphPad software on an IBM computer.

T1 sequence (P23219 24-599): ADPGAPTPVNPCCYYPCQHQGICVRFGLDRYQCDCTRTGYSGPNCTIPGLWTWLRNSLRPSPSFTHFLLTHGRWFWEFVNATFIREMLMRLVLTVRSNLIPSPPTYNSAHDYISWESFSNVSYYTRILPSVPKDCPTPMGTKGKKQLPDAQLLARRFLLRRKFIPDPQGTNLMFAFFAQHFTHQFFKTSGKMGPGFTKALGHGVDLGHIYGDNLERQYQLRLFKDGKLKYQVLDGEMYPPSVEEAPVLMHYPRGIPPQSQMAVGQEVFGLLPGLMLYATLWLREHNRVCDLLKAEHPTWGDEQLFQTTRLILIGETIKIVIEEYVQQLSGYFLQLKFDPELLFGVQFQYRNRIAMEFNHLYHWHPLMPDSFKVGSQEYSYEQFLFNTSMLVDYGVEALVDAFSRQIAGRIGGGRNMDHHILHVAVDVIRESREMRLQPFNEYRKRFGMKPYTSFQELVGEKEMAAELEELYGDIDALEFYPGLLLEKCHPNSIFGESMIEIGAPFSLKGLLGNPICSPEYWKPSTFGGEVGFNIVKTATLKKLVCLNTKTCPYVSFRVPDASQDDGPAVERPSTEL

Turning to `C[S+]([O-])c1ccc(C2=C(c3ccccc3)C(=O)OC2)cc1` (racemic) [4-[4(methylsulfinyl)phenyl]-3-phenylfuran-2(5H)-one (racemate), 4-[4-(Methylsulfinyl)phenyl)-3-phenylfuran-2(6H)-one], the IC50 (in general, the point on the concentration scale where inhibition reaches its midpoint) in assay [1] worked out at 33.4 µM.
On to `C[S@+]([O-])c1ccc(C2=C(c3ccccc3)C(=O)OC2)cc1` [4-[4(methylsulfinyl)phenyl]-3-phenylfuran-2(5H)-one (Enantiomer 1b)], for which, in assay [1], the IC50 is 37.8 µM. In addition, in assay [2], the midpoint of inhibition, the IC50, lay at 2.1 µM and the “Ratio COX-1/COX-2” value is given as 18.
The like results for `C[S@@+]([O-])c1ccc(C2=C(c3ccccc3)C(=O)OC2)cc1` [4-[4(methylsulfinyl)phenyl]-3-phenylfuran-2(5H)-one (Enantiomer 1a)] were, in that order, 32.2 µM, 4.22 µM and 7.6.

Source of the values: patent US20060189684A1, “3-Phenylfuran-2-one derivatives as cox-2 inhibitor” (priority 2003, published 2006).
